For four compounds, remaining activity results are on record in article PMC5564600 (Oncotarget, 2017).

Common to all, as to assay: biochemical
What all share (assay type): binding

The target of test [1] is T1, panel of 442 kinases (Homo sapiens, UniProt P08581).
T1 construct: purchased Ambit Biosciences (scanMAXX KINOMEscan)
To be noted: kinase MET; for remaining activity at 1 µM: read-out: % of control at 1 µM.

For test [2], the target named is T2, panel of 442 kinases (Homo sapiens, UniProt P51955).
T2 construct: purchased Ambit Biosciences (scanMAXX KINOMEscan)
T2 sequence (P51955 1-445): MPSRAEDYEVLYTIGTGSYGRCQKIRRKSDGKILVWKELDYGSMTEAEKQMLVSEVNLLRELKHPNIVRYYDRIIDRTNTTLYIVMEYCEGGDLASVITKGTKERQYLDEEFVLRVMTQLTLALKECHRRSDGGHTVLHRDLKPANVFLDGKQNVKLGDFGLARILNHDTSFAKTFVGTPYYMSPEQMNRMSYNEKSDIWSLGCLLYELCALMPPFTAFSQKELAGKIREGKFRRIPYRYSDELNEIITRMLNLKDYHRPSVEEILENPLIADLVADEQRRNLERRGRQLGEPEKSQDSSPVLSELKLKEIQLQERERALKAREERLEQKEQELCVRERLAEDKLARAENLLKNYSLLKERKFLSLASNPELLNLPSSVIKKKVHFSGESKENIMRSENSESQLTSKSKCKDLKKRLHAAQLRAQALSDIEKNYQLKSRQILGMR
To be noted: kinase NEK2; for remaining activity at 1 µM: read-out: % of control at 1 µM.

Test [3] concerns the target T3, panel of 442 kinases (Homo sapiens, UniProt Q13163).
T3 construct: purchased Ambit Biosciences (scanMAXX KINOMEscan)
T3 sequence (Q13163 1-448): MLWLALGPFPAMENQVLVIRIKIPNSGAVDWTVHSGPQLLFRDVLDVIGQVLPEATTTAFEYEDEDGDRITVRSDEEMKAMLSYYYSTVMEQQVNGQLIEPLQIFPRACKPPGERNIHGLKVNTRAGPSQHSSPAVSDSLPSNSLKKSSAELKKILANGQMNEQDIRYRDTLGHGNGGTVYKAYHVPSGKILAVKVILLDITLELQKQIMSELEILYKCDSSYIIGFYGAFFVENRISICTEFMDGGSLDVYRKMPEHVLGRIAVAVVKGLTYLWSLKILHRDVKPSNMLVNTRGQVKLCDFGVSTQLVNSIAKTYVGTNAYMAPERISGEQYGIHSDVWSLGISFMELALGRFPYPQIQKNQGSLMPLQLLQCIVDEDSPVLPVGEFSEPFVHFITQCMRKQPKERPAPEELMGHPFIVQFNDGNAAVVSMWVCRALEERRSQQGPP
To be noted: kinase MEK5; for remaining activity at 1 µM: read-out: % of control at 1 µM.

The target of test [4] is T4, panel of 442 kinases (Homo sapiens, UniProt O94806).
T4 construct: purchased Ambit Biosciences (scanMAXX KINOMEscan)
T4 sequence (O94806 1-890): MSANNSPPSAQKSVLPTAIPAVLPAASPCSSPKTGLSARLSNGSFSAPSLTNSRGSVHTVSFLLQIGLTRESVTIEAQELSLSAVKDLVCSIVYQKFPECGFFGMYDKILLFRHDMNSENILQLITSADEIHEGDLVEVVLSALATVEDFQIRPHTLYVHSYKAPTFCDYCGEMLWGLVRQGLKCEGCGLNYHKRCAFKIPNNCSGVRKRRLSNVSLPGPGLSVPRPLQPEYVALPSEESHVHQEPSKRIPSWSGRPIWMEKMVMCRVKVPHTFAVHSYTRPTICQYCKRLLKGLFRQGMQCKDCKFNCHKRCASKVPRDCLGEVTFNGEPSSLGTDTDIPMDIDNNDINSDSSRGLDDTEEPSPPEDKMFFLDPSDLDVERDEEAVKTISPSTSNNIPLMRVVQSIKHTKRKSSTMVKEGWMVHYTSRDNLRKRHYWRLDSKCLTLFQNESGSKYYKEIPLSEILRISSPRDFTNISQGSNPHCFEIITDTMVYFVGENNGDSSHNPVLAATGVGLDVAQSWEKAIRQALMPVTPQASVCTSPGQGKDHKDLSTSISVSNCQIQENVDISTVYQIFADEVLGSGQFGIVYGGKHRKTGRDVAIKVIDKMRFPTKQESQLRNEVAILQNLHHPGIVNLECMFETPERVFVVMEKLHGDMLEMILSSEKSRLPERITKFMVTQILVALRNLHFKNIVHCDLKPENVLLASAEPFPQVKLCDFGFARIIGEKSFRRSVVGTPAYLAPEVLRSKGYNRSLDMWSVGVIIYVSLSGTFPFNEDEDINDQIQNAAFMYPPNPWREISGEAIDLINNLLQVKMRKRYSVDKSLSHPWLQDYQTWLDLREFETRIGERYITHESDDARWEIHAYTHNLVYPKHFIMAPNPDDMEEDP
To be noted: kinase PRKD3; for remaining activity at 1 µM: read-out: PRKD3 (% of control at 1 µM).

Test [5] deals with T5, panel of 442 kinases (Homo sapiens, UniProt P11309).
T5 construct: purchased Ambit Biosciences (scanMAXX KINOMEscan)
T5 sequence (P11309 whole entry): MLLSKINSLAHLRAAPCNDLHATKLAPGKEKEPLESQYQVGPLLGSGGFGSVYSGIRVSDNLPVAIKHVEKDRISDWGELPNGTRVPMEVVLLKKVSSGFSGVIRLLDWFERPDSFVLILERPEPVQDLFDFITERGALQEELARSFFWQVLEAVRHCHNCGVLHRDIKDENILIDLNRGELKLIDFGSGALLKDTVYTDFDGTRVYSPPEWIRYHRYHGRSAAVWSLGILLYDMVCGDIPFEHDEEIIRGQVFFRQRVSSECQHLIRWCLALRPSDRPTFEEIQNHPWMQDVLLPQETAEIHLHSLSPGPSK
To be noted: kinase PIM1; for remaining activity at 1 µM: read-out: % of control at 1 µM.

In test [6] the target is T6, panel of 442 kinases (Homo sapiens, UniProt Q8N752).
T6 construct: purchased Ambit Biosciences (scanMAXX KINOMEscan)
T6 sequence (Q8N752 1-337): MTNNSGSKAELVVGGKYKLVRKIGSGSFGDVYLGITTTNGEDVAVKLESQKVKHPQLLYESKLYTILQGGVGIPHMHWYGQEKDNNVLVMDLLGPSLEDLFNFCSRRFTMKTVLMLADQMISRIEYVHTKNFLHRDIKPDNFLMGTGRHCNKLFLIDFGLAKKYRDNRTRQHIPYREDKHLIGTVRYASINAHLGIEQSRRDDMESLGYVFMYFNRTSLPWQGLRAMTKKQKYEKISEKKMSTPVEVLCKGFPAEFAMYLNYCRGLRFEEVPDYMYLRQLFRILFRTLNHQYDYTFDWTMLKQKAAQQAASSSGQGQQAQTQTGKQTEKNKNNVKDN
To be noted: CSNK1A1L; for remaining activity at 1 µM: read-out: % of control at 1 µM.

[7] abbreviates: 10 µM, read-out: % of control at 10 µM.

Molecules are shown by their SMILES.

T1 sequence (P08581 25-1390): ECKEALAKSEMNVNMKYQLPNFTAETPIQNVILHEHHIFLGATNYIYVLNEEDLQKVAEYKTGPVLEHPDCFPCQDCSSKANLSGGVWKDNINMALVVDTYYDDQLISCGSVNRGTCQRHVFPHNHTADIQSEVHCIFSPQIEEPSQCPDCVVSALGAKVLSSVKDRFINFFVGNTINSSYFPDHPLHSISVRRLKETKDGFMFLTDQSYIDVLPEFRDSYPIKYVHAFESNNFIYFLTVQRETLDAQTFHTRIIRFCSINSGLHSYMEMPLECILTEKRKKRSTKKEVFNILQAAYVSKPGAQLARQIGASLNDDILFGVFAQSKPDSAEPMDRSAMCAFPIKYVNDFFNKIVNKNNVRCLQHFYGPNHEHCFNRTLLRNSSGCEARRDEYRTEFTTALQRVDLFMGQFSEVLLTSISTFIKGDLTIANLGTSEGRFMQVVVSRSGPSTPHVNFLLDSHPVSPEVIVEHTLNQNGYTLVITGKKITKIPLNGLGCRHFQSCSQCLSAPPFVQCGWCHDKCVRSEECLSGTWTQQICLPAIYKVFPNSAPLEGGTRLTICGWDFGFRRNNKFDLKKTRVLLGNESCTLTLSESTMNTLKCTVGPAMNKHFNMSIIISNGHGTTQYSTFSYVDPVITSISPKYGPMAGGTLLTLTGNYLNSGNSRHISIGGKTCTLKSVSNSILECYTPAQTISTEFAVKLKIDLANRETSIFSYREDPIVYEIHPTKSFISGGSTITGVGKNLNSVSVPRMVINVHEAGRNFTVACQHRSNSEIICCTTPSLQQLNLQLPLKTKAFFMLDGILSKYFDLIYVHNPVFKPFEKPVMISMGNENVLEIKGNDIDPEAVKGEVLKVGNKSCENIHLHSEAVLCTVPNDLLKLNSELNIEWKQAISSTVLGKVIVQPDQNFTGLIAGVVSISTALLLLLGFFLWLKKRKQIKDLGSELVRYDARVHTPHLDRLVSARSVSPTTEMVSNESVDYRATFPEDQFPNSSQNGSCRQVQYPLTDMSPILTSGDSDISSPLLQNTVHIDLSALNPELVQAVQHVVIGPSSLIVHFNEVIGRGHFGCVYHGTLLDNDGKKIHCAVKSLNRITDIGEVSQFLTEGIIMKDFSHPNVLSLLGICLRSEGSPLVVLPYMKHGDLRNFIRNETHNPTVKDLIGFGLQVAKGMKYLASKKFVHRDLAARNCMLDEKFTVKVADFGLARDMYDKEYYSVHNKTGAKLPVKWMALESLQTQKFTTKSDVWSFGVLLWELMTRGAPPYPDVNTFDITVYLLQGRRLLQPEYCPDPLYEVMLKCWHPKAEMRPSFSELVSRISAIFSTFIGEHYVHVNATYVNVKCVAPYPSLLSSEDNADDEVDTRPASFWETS

Consider `Nc1cc(C(F)(F)F)c(-c2cc(N3CCOCC3)nc(N3CCOCC3)n2)cn1` [Buparlisib], for which the remaining activity at 1 µM on panel of 442 kinases [1] amounted to 100%; on panel of 442 kinases [2], 84%; on panel of 442 kinases [3], 88%; at panel of 442 kinases [4], 94%; on panel of 442 kinases [5] it was 87%; at panel of 442 kinases [6], 100%. Moreover, the remaining activity at 10 µM at panel of 442 kinases [1] (setting [7]) worked out at 100%; on panel of 442 kinases [2] (setting [7]) it was 86%; at panel of 442 kinases [3] (setting [7]), 85%; at panel of 442 kinases [4] (10 µM, read-out: PRKD3 (% of control at 10 µM)), 100%; on panel of 442 kinases [5] (setting [7]), 100%; on panel of 442 kinases [6] (setting [7]) it was 100%.
For the compound `Cn1c(=O)n(-c2ccc(C(C)(C)C#N)cc2)c2c3cc(-c4cnc5ccccc5c4)ccc3ncc21` [Dactolisib, 2-methyl-2-[4-(3-methyl-2-oxo-8-quinolin-3-yl-2,3-dihydroimidazo[4,5-c]quinolin-1-yl)-phenyl] propionitrile], the remaining activity at 1 µM at panel of 442 kinases [2] was determined as 88%; on panel of 442 kinases [3], 42%; at panel of 442 kinases [4], 100%; at panel of 442 kinases [5], 100%; at panel of 442 kinases [6] it was 100%.
Regarding `COc1ncc(-c2ccc3nccc(-c4ccnnc4)c3c2)cc1NS(=O)(=O)c1ccc(F)cc1F` [Omipalisib], the remaining activity at 1 µM was found to be 99% on panel of 442 kinases [1]; 100% on panel of 442 kinases [2]; 69% on panel of 442 kinases [3]; 100% at panel of 442 kinases [4]; 100% on panel of 442 kinases [5]; 100% at panel of 442 kinases [6].
In the case of `FC(F)c1nc2ccccc2n1-c1nc(N2CCOCC2)nc(N2CCOCC2)n1` [ZSTK474, 2-(difluoromethyl)-1-[4,6-di(4-morpholinyl)-1,3,5-triazin-2-yl]-1H-benzimidazole], the remaining activity at 1 µM on panel of 442 kinases [1] came out at 100%; at panel of 442 kinases [2], 87%; at panel of 442 kinases [3], 99%; on panel of 442 kinases [4] it was 100%; at panel of 442 kinases [5] it was 100%; on panel of 442 kinases [6], 100%.
